Measured values reported in US11180462B2, “Microbiocidal oxadiazole derivatives” (SYNGENTA PARTICIPATIONS AG, priority 2015, dated 2021).

How the values were obtained:
[1] = system: Puccinia recondita f. Sp. Tritici; test: Fungicidal activity against Puccinia recondita f. sp. tritici / wheat / leaf disc curative (brown rust); format: in vivo; conditions: foliar, 24 h, 200 ppm in the applied formulation, wheat leaf segments, curative (applied 1 day after inoculation), compared to untreated control leaf disks, read-out: disease control
Outline: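 Inoculate cv. Kanzler segments on agar; hold dark, 19° C, 75% RH. Spray diluted formulated compound at day 1. Incubate 12 h light/12 h dark, same temperature and humidity; score % control vs untreated 6–8 days later.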

[2] = system: Puccinia recondita f. Sp. Tritici; test: Fungicidal activity against Puccinia recondita f. sp. tritici / wheat / leaf disc preventative (brown rust); format: in vivo; conditions: foliar, 200 ppm in the applied formulation, wheat leaf segments, preventative, compared to untreated control leaf disks, read-out: disease control
Outline: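 Percent disease control relative to untreated check segments is scored once disease develops, 7 to 9 days after application. Wheat cv. Kanzler segments receive compound spray (200 ppm in formulation) one day before spore inoculation, then sit at 19° C. and 75% rh under 12 h light/12 h dark.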

Phakopsora Pachyrhizi = test: Fungicidal activity against Phakopsora pachyrhizi / soybean / leaf disc preventative (Asian soybean rust); format: in vivo; conditions: foliar, 200 ppm in the applied formulation, soybean leaf disks, compared to untreated control leaf disks, read-out: disease control
Outline: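 Scored 12 to 14 days post-application as percent control relative to untreated check discs, rust spores were sprayed under the disc one day after compound treatment. Incubation: 20°C, 75% rh, first 24–36 h in darkness, then 12 h daily light; discs kept on water agar.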

[3] = system: Glomerella lagenarium (Colletotrichum lagenarium); test: Fungicidal activity against Glomerella lagenarium (Colletotrichum lagenarium) liquid culture / cucumber / preventative (anthracnose); format: cell-based; conditions: Colletotrichum orbiculare; 20 ppm in the applied formulation; liquid culture (PDB), growth inhibition measured photometrically after 3 to 4 days; compared to untreated control; read-out: disease control
Outline: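 Percent activity against the untreated check was derived from photometric growth measurements made 2 to 7 days after conidia in potato dextrose broth were combined with compound at 20 ppm. Cultures were kept dark at 24 °C and 96% humidity.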

CCC(C)N(Cc1ccc(-c2noc(C(F)(F)F)n2)cc1)C(=O)CCOC (stereo not drawn) [Compound 1.379, 3-methoxy-N-sec-butyl-N-[[4-[5-(trifluoromethyl)-1,2,4-oxadiazol-3-yl]phenyl]methyl]-propanamide]
≥ 80%: pest or weed control at 200 ppm [1] | pest or weed control at 200 ppm [2] | pest or weed control at 200 ppm (Phakopsora Pachyrhizi) | inhibition of growth at 20 ppm [3]

CCN(Cc1ccc(-c2noc(C(F)(F)F)n2)cc1)C(=O)C1CCCO1 (stereo not drawn) [Compound 1.509, N-ethyl-N-[[4-[5-(trifluoromethyl)-1,2,4-oxadiazol-3-yl]phenyl]methyl]-tetrahydrofuran-2-carboxamide]
≥ 80%: pest or weed control at 200 ppm [1] | pest or weed control at 200 ppm [2] | pest or weed control at 200 ppm (Phakopsora Pachyrhizi) | inhibition of growth at 20 ppm [3]

CCC(=O)N(Cc1c(F)cc(-c2noc(C(F)(F)F)n2)cc1F)OC [Compound 1.594, N-[[2,6-difluoro-4-[5-(trifluoromethyl)-1,2,4-oxadiazol-3-yl]phenyl]methyl]-N-methoxy-propanamide]
≥ 80%: pest or weed control at 200 ppm [1] | pest or weed control at 200 ppm [2] | pest or weed control at 200 ppm (Phakopsora Pachyrhizi) | inhibition of growth at 20 ppm [3]

CON(Cc1ccc(-c2noc(C(F)(F)F)n2)cn1)C(=O)C1CC1 [Compound 1.570, N-methoxy-N-[[5-[5-(trifluoromethyl)-1,2,4-oxadiazol-3-yl]-2-pyridyl]methyl]cyclopropanecarboxamide]
≥ 80%: pest or weed control at 200 ppm [1] | pest or weed control at 200 ppm [2] | pest or weed control at 200 ppm (Phakopsora Pachyrhizi) | inhibition of growth at 20 ppm [3]

CCCN(Cc1ccc(-c2noc(C(F)(F)F)n2)cc1)C(=O)CCOC [Compound 1.655, 3-methoxy-N-propyl-N-[[4-[5-(trifluoromethyl)-1,2,4-oxadiazol-3-yl]phenyl]methyl]-propanamide]
≥ 80%: pest or weed control at 200 ppm [1] | pest or weed control at 200 ppm [2] | pest or weed control at 200 ppm (Phakopsora Pachyrhizi) | inhibition of growth at 20 ppm [3]

CCN(Cc1ccc(-c2noc(C(F)(F)F)n2)cc1)C(=O)NC1CC1 [Compound 3.53, 3-cyclopropyl-1-ethyl-1-[[4-[5-(trifluoromethyl)-1,2,4-oxadiazol-3-yl]phenyl]methyl]urea]
≥ 80%: pest or weed control at 200 ppm [1] | pest or weed control at 200 ppm [2] | pest or weed control at 200 ppm (Phakopsora Pachyrhizi) | inhibition of growth at 20 ppm [3]

CC1(C(=O)N(Cc2ccc(-c3noc(C(F)(F)F)n3)cc2)C2CC2)COC1 [Compound 1.128, N-cyclopropyl-3-methyl-N-[[4-[5-(trifluoromethyl)-1,2,4-oxadiazol-3-yl]phenyl]methyl]-oxetane-3-carboxamide]
≥ 80%: pest or weed control at 200 ppm [1] | pest or weed control at 200 ppm [2] | pest or weed control at 200 ppm (Phakopsora Pachyrhizi) | inhibition of growth at 20 ppm [3]

CN(Cc1ccc(-c2noc(C(F)(F)F)n2)cc1)C(=O)C1OCCO1 [Compound 1.531, N-methyl-N-[[4-[5-(trifluoromethyl)-1,2,4-oxadiazol-3-yl]phenyl]methyl]-1,3-dioxolane-2-carboxamide]
≥ 80%: pest or weed control at 200 ppm [1] | pest or weed control at 200 ppm [2] | pest or weed control at 200 ppm (Phakopsora Pachyrhizi) | inhibition of growth at 20 ppm [3]

CCON(Cc1ccc(-c2noc(C(F)(F)F)n2)cc1)C(C)=O [Compound 1.631, N-ethoxy-N-[[4-[5-(trifluoromethyl)-1,2,4-oxadiazol-3-yl]phenyl]methyl]-acetamide]
≥ 80%: pest or weed control at 200 ppm [1] | pest or weed control at 200 ppm [2] | pest or weed control at 200 ppm (Phakopsora Pachyrhizi) | inhibition of growth at 20 ppm [3]

CC(C)N(Cc1ccc(-c2noc(C(F)(F)F)n2)cc1)C(=O)C1(C)COC1 [Compound 1.679, N-isopropyl-3-methyl-N-[[4-[5-(trifluoromethyl)-1,2,4-oxadiazol-3-yl]phenyl]methyl]-oxetane-3-carboxamide]
≥ 80%: pest or weed control at 200 ppm [1] | pest or weed control at 200 ppm [2] | pest or weed control at 200 ppm (Phakopsora Pachyrhizi) | inhibition of growth at 20 ppm [3]

COC(C)C(=O)N(Cc1ccc(-c2noc(C(F)(F)F)n2)cc1)C1CC1 (stereo not drawn) [Compound 1.147, N-cyclopropyl-2-methoxy-N-[[4-[5-(trifluoromethyl)-1,2,4-oxadiazol-3-yl]phenyl]methyl]-propanamide]
≥ 80%: pest or weed control at 200 ppm [1] | pest or weed control at 200 ppm [2] | pest or weed control at 200 ppm (Phakopsora Pachyrhizi) | inhibition of growth at 20 ppm [3]

CCN(Cc1ccc(-c2noc(C(F)(F)F)n2)cc1)C(=O)C1OCCO1 [Compound 1.513, N-ethyl-N-[[4-[5-(trifluoromethyl)-1,2,4-oxadiazol-3-yl]phenyl]methyl]-1,3-dioxolane-2-carboxamide]
≥ 80%: pest or weed control at 200 ppm [1] | pest or weed control at 200 ppm [2] | pest or weed control at 200 ppm (Phakopsora Pachyrhizi) | inhibition of growth at 20 ppm [3]

C#CCN(Cc1ccc(-c2noc(C(F)(F)F)n2)cc1)C(=O)C1CSC1 [Compound 1.172, N-prop-2-ynyl-N-[[4-[5-(trifluoromethyl)-1,2,4-oxadiazol-3-yl]phenyl]methyl]-thietane-3-carboxamide]
≥ 80%: pest or weed control at 200 ppm [1] | pest or weed control at 200 ppm [2] | pest or weed control at 200 ppm (Phakopsora Pachyrhizi)

CC1(C(=O)OCCN(Cc2ccc(-c3noc(C(F)(F)F)n3)cc2)C(=O)C2(C)COC2)COC1 [Compound 1.722, 2-[(3-methyloxetane-3-carbonyl)-[[4-[5-(trifluoromethyl)-1,2,4-oxadiazol-3-yl]phenyl]methyl]-amino]ethyl 3-methyloxetane-3-carboxylate]
≥ 80%: pest or weed control at 200 ppm [1] | pest or weed control at 200 ppm [2] | pest or weed control at 200 ppm (Phakopsora Pachyrhizi)

O=C(C1CCCO1)N(Cc1ccc(-c2noc(C(F)(F)F)n2)cc1)C1COC1 (stereo not drawn) [Compound 1.747, N-(oxetan-3-yl)-N-[[4-[5-(trifluoromethyl)-1,2,4-oxadiazol-3-yl]phenyl]methyl]-tetrahydrofuran-2-carboxamide]
≥ 80%: pest or weed control at 200 ppm [1] | pest or weed control at 200 ppm [2] | pest or weed control at 200 ppm (Phakopsora Pachyrhizi)

COC(C)C(=O)N(CCO)Cc1ccc(-c2noc(C(F)(F)F)n2)cc1 (stereo not drawn) [Compound 1.731, N-(2-hydroxyethyl)-2-methoxy-N-[[4-[5-(trifluoromethyl)-1,2,4-oxadiazol-3-yl]phenyl]methyl]-propanamide]
≥ 80%: pest or weed control at 200 ppm [1] | pest or weed control at 200 ppm [2] | pest or weed control at 200 ppm (Phakopsora Pachyrhizi)

CCCCON(Cc1ccc(-c2noc(C(F)(F)F)n2)cc1)C(=O)C(C)CC (stereo not drawn) [Compound 1.640, N-butoxy-2-methyl-N-[[4-[5-(trifluoromethyl)-1,2,4-oxadiazol-3-yl]phenyl]methyl]-butanamide]
≥ 80%: pest or weed control at 200 ppm [1] | pest or weed control at 200 ppm [2] | pest or weed control at 200 ppm (Phakopsora Pachyrhizi)

O=C(C1CCOC1)N(CCO)Cc1ccc(-c2noc(C(F)(F)F)n2)cc1 (stereo not drawn) [Compound 1.711, N-(2-hydroxyethyl)-N-[[4-[5-(trifluoromethyl)-1,2,4-oxadiazol-3-yl]phenyl]methyl]-tetrahydrofuran-3-carboxamide]
≥ 80%: pest or weed control at 200 ppm [1] | pest or weed control at 200 ppm [2] | pest or weed control at 200 ppm (Phakopsora Pachyrhizi)

C#CCN(Cc1ccc(-c2noc(C(F)(F)F)n2)cc1)C(=O)C(C)OC (stereo not drawn) [Compound 1.200, 2-methoxy-N-prop-2-ynyl-N-[[4-[5-(trifluoromethyl)-1,2,4-oxadiazol-3-yl]phenyl]methyl]-propanamide]
≥ 80%: pest or weed control at 200 ppm [1] | pest or weed control at 200 ppm [2] | pest or weed control at 200 ppm (Phakopsora Pachyrhizi)

CC1(C(=O)N(Cc2ccc(-c3noc(C(F)(F)F)n3)cc2)C2COC2)COC1 [Compound 1.744, 3-methyl-N-(oxetan-3-yl)-N-[[4-[5-(trifluoromethyl)-1,2,4-oxadiazol-3-yl]phenyl]methyl]-oxetane-3-carboxamide]
≥ 80%: pest or weed control at 200 ppm [1] | pest or weed control at 200 ppm [2] | pest or weed control at 200 ppm (Phakopsora Pachyrhizi)

N#CCC(=O)N(Cc1ccc(-c2noc(C(F)(F)F)n2)cc1)C1COC1 [Compound 1.748, 2-cyano-N-(oxetan-3-yl)-N-[[4-[5-(trifluoromethyl)-1,2,4-oxadiazol-3-yl]phenyl]methyl]-acetamide]
≥ 80%: pest or weed control at 200 ppm [1] | pest or weed control at 200 ppm [2] | pest or weed control at 200 ppm (Phakopsora Pachyrhizi)

CC1(C(=O)ON(Cc2ccc(-c3noc(C(F)(F)F)n3)cc2)C(=O)C2(C)COC2)COC1 [Compound 1.767, [(3-methyloxetane-3-carbonyl)-[[4-[5-(trifluoromethyl)-1,2,4-oxadiazol-3-yl]phenyl]methyl]-amino] 3-methyloxelane-3-carboxylate]
≥ 80%: pest or weed control at 200 ppm [1] | pest or weed control at 200 ppm [2] | pest or weed control at 200 ppm (Phakopsora Pachyrhizi)

COC(C)C(=O)OCCN(Cc1ccc(-c2noc(C(F)(F)F)n2)cc1)C(=O)C(C)OC (stereo not drawn) [Compound 1.732, 2-[2-methoxypropanoyl-[[4-[5-(trifluoromethyl)-1,2,4-oxadiazol-3-yl]phenyl]methyl]-amino]ethyl 2-methoxypropanoate]
≥ 80%: pest or weed control at 200 ppm [1] | pest or weed control at 200 ppm [2] | pest or weed control at 200 ppm (Phakopsora Pachyrhizi)
